According to PubChem BioAssay AID248 (DTP/NCI, 2004):
Values joined by “and” are separate entries in the source; they are usually repeats but may differ in a detail not shown here. Identical values can stand only once. Inconclusive results and toxic doses are left out.

Tested on: L1210 leukemia ip in BDF1 mice, survival T/C
Test: NCI In Vivo Anticancer Drug Screen. Data for tumor model L1210 Leukemia (intraperitoneal) in B6D2F1 (BDF1) mice
Details: endpoint: mean survival time, higher = longer survival
Summary of the method: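 Survival endpoint. Drug-treated group vs vehicle group, expressed as T divided by C. Tumor passaged by transplantation.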

[1] = dose: 50.0 mg/kg/injection, schedule: Q01DX009 (ip), vehicle: saline with Tween-80
[2] = dose: 100.0 mg/kg/injection, schedule: Q04DX003 (ip), vehicle: saline with Tween-80
[3] = dose: 200.0 mg/kg/injection, schedule: Q04DX003 (ip), vehicle: saline with Tween-80
[4] = dose: 100.0 mg/kg/injection, schedule: Q01DX009 (ip), vehicle: saline with Tween-80
[5] = dose: 200.0 mg/kg/injection, schedule: Q01DX009 (ip), vehicle: saline with Tween-80
[6] = dose: 50.0 mg/kg/injection, schedule: Q01DX001 (ip), vehicle: carboxymethylcellulose (CMC)
[7] = dose: 100.0 mg/kg/injection, schedule: Q01DX001 (ip), vehicle: carboxymethylcellulose (CMC)
[8] = dose: 100.0 mg/kg/injection, schedule: Q04DX003 (ip), vehicle: Klucel (hydroxypropylcellulose) (HPC)
[9] = dose: 200.0 mg/kg/injection, schedule: Q01DX001 (ip), vehicle: carboxymethylcellulose (CMC)
[10] = dose: 200.0 mg/kg/injection, schedule: Q04DX003 (ip), vehicle: Klucel (hydroxypropylcellulose) (HPC)
[11] = dose: 400.0 mg/kg/injection, schedule: Q01DX001 (ip), vehicle: carboxymethylcellulose (CMC)
[12] = dose: 100.0 mg/kg/injection, schedule: Q01DX009 (ip), vehicle: Klucel (hydroxypropylcellulose) (HPC)
[13] = dose: 200.0 mg/kg/injection, schedule: Q01DX009 (ip), vehicle: Klucel (hydroxypropylcellulose) (HPC)
[14] = dose: 400.0 mg/kg/injection, schedule: Q04DX003 (ip), vehicle: Klucel (hydroxypropylcellulose) (HPC)
[15] = dose: 400.0 mg/kg/injection, schedule: Q04DX003 (ip), vehicle: saline with Tween-80
[16] = dose: 400.0 mg/kg/injection, schedule: Q01DX009 (ip), vehicle: saline with Tween-80

O=NN(CCCl)C(=O)NC1CCC(C(=O)O)CC1 (stereo not given)
T/C (dose: 6.0 mg/kg/injection, schedule: Q01DX001 (ip), vehicle: saline with Tween-80): 168 % of control | T/C (dose: 9.0 mg/kg/injection, schedule: Q01DX001 (ip), vehicle: saline with Tween-80): 195 % of control and 215 % of control | T/C (dose: 13.0 mg/kg/injection, schedule: Q01DX001 (ip), vehicle: saline with Tween-80): 275 % of control and 154 % of control and 260 % of control | T/C (dose: 20.0 mg/kg/injection, schedule: Q01DX001 (ip), vehicle: saline with Tween-80): 291 % of control and 409 % of control | T/C (dose: 30.0 mg/kg/injection, schedule: Q01DX001 (ip), vehicle: saline with Tween-80): 310 % of control | T/C (dose: 45.0 mg/kg/injection, schedule: Q01DX001 (ip), vehicle: saline with Tween-80): 544 % of control | T/C (dose: 46.0 mg/kg/injection, schedule: Q01DX001 (ip), vehicle: saline with Tween-80): 311 % of control and 191 % of control | T/C (dose: 67.5 mg/kg/injection, schedule: Q01DX001 (ip), vehicle: saline with Tween-80): 525 % of control | T/C (dose: 93.0 mg/kg/injection, schedule: Q01DX001 (ip), vehicle: saline with Tween-80): 209 % of control and 101 % of control | T/C (dose: 139.0 mg/kg/injection, schedule: Q01DX001 (ip), vehicle: saline with Tween-80): 91 % of control

CC(=O)OC(C(C)=O)c1ccccc1 (stereo not given)
T/C (dose: 50.0 mg/kg/injection, schedule: Q01DX001 (ip), vehicle: saline): 101 % of control | T/C (dose: 100.0 mg/kg/injection, schedule: Q01DX001 (ip), vehicle: saline): 101 % of control | T/C (dose: 200.0 mg/kg/injection, schedule: Q01DX001 (ip), vehicle: saline): 98 % of control | T/C (dose: 400.0 mg/kg/injection, schedule: Q01DX001 (ip), vehicle: saline): 101 % of control

CCCCC(CC)C1NC(=O)N(SC(Cl)(Cl)Cl)C1=O (stereo not given)
T/C (dose: 12.5 mg/kg/injection, schedule: Q01DX009 (ip), vehicle: saline with Tween-80): 103 % of control | T/C (dose: 25.0 mg/kg/injection, schedule: Q01DX009 (ip), vehicle: saline with Tween-80): 92 % of control | T/C [1]: 101 % of control and 106 % of control

CC1(C)N=C(N)N=C(N)N1c1ccc(CCc2ccc(Cl)cc2S(=O)(=O)F)c(Cl)c1
T/C (dose: 100.0 mg/kg/injection, schedule: Q01DX001 (ip), vehicle: saline with Tween-80): 91 % of control | T/C (dose: 200.0 mg/kg/injection, schedule: Q01DX001 (ip), vehicle: saline with Tween-80): 94 % of control | T/C (dose: 400.0 mg/kg/injection, schedule: Q01DX001 (ip), vehicle: saline with Tween-80): 97 % of control

CCCCCCCCCCCCCCCC(O)S(=O)(=O)O (stereo not given)
T/C [2]: 92 % of control | T/C [3]: 97 % of control

COc1cc2c(cc1O)CCCC(C)(C)C2=O
T/C [1]: 104 % of control | T/C [4]: 93 % of control | T/C [5]: 90 % of control

O=C(Nc1cccc(Cl)c1)OCC#CCN1CCCC1
T/C (dose: 5.0 mg/kg/injection, schedule: Q01DX001 (ip), vehicle: saline): 105 % of control | T/C (dose: 9.0 mg/kg/injection, schedule: Q01DX001 (ip), vehicle: saline): 95 % of control and 101 % of control | T/C (dose: 10.0 mg/kg/injection, schedule: Q01DX001 (ip), vehicle: saline): 105 % of control | T/C (dose: 13.0 mg/kg/injection, schedule: Q01DX001 (ip), vehicle: saline): 97 % of control and 104 % of control | T/C (dose: 20.0 mg/kg/injection, schedule: Q01DX001 (ip), vehicle: saline): 98 % of control and 101 % of control | T/C (dose: 30.0 mg/kg/injection, schedule: Q01DX001 (ip), vehicle: saline): 98 % of control and 101 % of control | T/C (dose: 40.0 mg/kg/injection, schedule: Q01DX001 (ip), vehicle: saline): 101 % of control | T/C (dose: 80.0 mg/kg/injection, schedule: Q01DX001 (ip), vehicle: saline): 111 % of control

O=C(O)C1(Br)c2ccccc2-c2ccccc21
T/C [6]: 100 % of control | T/C (dose: 50.0 mg/kg/injection, schedule: Q04DX003 (ip), vehicle: Klucel (hydroxypropylcellulose) (HPC)): 100 % of control | T/C [7]: 100 % of control | T/C [8]: 94 % of control | T/C [9]: 96 % of control | T/C [10]: 96 % of control | T/C [11]: 105 % of control

ClC(=C(c1ccccc1)c1ccccc1)c1ccccc1
T/C [12]: 92 % of control | T/C [8]: 94 % of control | T/C [13]: 96 % of control | T/C [10]: 92 % of control | T/C (dose: 400.0 mg/kg/injection, schedule: Q01DX009 (ip), vehicle: Klucel (hydroxypropylcellulose) (HPC)): 95 % of control | T/C [14]: 95 % of control

CN1CCSC1=S
T/C (dose: 50.0 mg/kg/injection, schedule: Q01DX009 (ip), vehicle: Klucel (hydroxypropylcellulose) (HPC)): 92 % of control | T/C [12]: 100 % of control | T/C [8]: 105 % of control | T/C [13]: 105 % of control | T/C [10]: 105 % of control | T/C [14]: 94 % of control

CCC1(C)N=C(C)C(C)S1 (stereo not given)
T/C [2]: 111 % of control | T/C [3]: 100 % of control | T/C [15]: 100 % of control

CC1CN=C(c2ccc(NC(=O)Nc3ccc(C(=O)Nc4ccc(C5=NCC(C)N5)cc4)cc3)cc2)N1 (stereo not given)
T/C (dose: 0.23 mg/kg/injection, schedule: Q01DX009 (ip), vehicle: saline): 96 % of control | T/C (dose: 0.94 mg/kg/injection, schedule: Q01DX009 (ip), vehicle: saline): 96 % of control | T/C (dose: 7.5 mg/kg/injection, schedule: Q01DX Z (ip), vehicle: saline): 150 % of control | T/C (dose: 15.0 mg/kg/injection, schedule: Q01DX Z (ip), vehicle: other): 204 % of control | T/C (dose: 15.0 mg/kg/injection, schedule: Q01DX Z (ip), vehicle: saline): 277 % of control | T/C (dose: 15.0 mg/kg/injection, schedule: Q01DX Z (oral), vehicle: saline): 103 % of control | T/C (dose: 30.0 mg/kg/injection, schedule: Q01DX Z (ip), vehicle: other): 115 % of control | T/C (dose: 30.0 mg/kg/injection, schedule: Q01DX Z (oral), vehicle: saline): 103 % of control | T/C (dose: 60.0 mg/kg/injection, schedule: Q01DX Z (oral), vehicle: saline): 103 % of control | T/C (dose: 120.0 mg/kg/injection, schedule: Q01DX Z (oral), vehicle: saline): 102 % of control

CC12CCc3occc3C1CCC13CC(CO)C(O)(CCC12)C3 (stereo not given)
T/C (dose: 100.0 mg/kg/injection, schedule: Q04DX003 (ip), vehicle: saline): 94 % of control | T/C (dose: 200.0 mg/kg/injection, schedule: Q04DX003 (ip), vehicle: saline): 93 % of control

CC(C)=CC(=O)C1C(=O)c2ccccc2C1=O
T/C [6]: 96 % of control | T/C [7]: 90 % of control

CCCCCNC(=O)CCC(=O)NCCCCC
T/C (dose: 100.0 mg/kg/injection, schedule: Q01DX001 (ip), vehicle: other): 98 % of control | T/C (dose: 200.0 mg/kg/injection, schedule: Q01DX001 (ip), vehicle: other): 98 % of control | T/C (dose: 400.0 mg/kg/injection, schedule: Q01DX001 (ip), vehicle: other): 98 % of control

O=C(N1CCC2(CC1)SSC1(CCN(C(=O)C(F)(F)F)CC1)S2)C(F)(F)F
T/C [4]: 97 % of control | T/C [5]: 97 % of control | T/C [16]: 95 % of control

O=Cc1[nH]c(=S)[nH]c(=O)c1Cc1cccc(Cl)c1
T/C [4]: 100 % of control | T/C [2]: 94 % of control | T/C [5]: 100 % of control | T/C [3]: 94 % of control | T/C [16]: 100 % of control | T/C [15]: 90 % of control

CC(C)c1ccc(C(c2c(O)c3ccccc3oc2=O)c2c(O)c3ccccc3oc2=O)cc1
T/C [12]: 90 % of control | T/C [8]: 106 % of control | T/C [13]: 103 % of control | T/C [10]: 100 % of control | T/C [14]: 105 % of control

COC1=CC23CCCN2CCc2cc4c(cc2C3C1OC(C)=O)OCO4 (stereo not given)
T/C (dose: 25.0 mg/kg/injection, schedule: Q01DX009 (ip), vehicle: saline): 106 % of control | T/C (dose: 50.0 mg/kg/injection, schedule: Q01DX009 (ip), vehicle: saline): 106 % of control | T/C (dose: 100.0 mg/kg/injection, schedule: Q01DX009 (ip), vehicle: saline): 102 % of control

Nc1ccc2c(c1)Cc1cc(NC=O)ccc1-2
T/C [7]: 101 % of control | T/C [9]: 97 % of control | T/C [11]: 92 % of control

C#CC(=O)c1ccccc1
T/C (dose: 4.7 mg/kg/injection, schedule: Q01DX009 (ip), vehicle: saline with Tween-80): 94 % of control | T/C (dose: 18.8 mg/kg/injection, schedule: Q01DX001 (ip), vehicle: saline): 98 % of control | T/C (dose: 37.5 mg/kg/injection, schedule: Q01DX001 (ip), vehicle: saline): 104 % of control
